pEC50: −log10 of the molar value.
System: HCV replicon (Renilla luciferase) in HUH-7 cells
Assay: HCV replicon luciferase reporter assay
Type: cell-based, HCV strain 1b
Conditions: Huh-7, 96 h, 4 days
Text: An HCV replicon whole cell system was established as described by Lohmann V, Korner F, Koch J, Herian U, Theilmann L, Bartenschlager R., Science 285(5424):110-3 (1999). This system enabled us to evaluate the effects of our HCV Protease compounds on HCV RNA replication. Briefly, using the HCV strain 1b sequence described in the Lohmann paper (Assession number: AJ238799), an HCV cDNA was synthesized by Operon Technologies, Inc. (Alameda, Calif.), and the full-length replicon was then assembled in plasmid pGem9zf(+) (Promega, Madison, Wis.) using standard molecular biology techniques. […]
As a secondary assay, EC50 determinations from the replicon FRET assay were confirmed in a replicon luciferase reporter assay. […] Following 4 days in a 37° C./5% CO2 incubator, cells were analyzed for Renilla Luciferase activity using the Promega Dual-Glo Luciferase Assay System. […] Plates were read on a Packard TopCount NXT using a luminescence program.
The percentage inhibition was calculated using the formula below: % control=average luciferase signal in experimental wells (+compound)
average luciferase signal in DMSO control wells (−compound) The values were graphed and analyzed using XLfit to obtain the EC50 value.

COc1c(O[C@@H]2C[C@H]3C(=O)N[C@]4(C(=O)NS(=O)(=O)C5CC5)C[C@H]4/C=C\CCCCC[C@H](NC(=O)OC(C)(C)C)C(=O)N3C2)ccc2c(Cl)nccc12 [Compound 3]
pEC50: 8.26

Source: US7741281B2, “Hepatitis C virus inhibitors” (Bristol-Myers Squibb Company, priority 2005, dated 2010)
